{"source": "patent EP0255256A2", "about": "“Antibiotics produced by actinomadura parvosata” (SMITHKLINE BECKMAN CORPORATION, priority 1986, dated 1988)", "key": {"Staph. aureus 2620": {"system": "Staph. aureus 2620", "assay": "MIC, standard microtiter assay", "type": "cell-based", "conditions": "Staphylococcus aureus, 2620, read-out: MIC in μg/ml, Staph. aureus 2620", "description": "(§1) The in vitro minimal inhibitory concentration (MIC) of the AAJ-271 complex and its factors, and vancomycin were determined for a number of microorganisms using the standard microtite'r assay procedures. The results are shown in the following tables, each of which represents a different production run of the complex.\n(§2) The in vitro minimal inhibitory concentration (MIC) and the in vitro minimal bactericidal concentration (MBC) of the AAJ-271 aglycones, pseudo-aglycone and vancomycin were determined for a number of microorganisms using the standard microtiter assay procedures."}, "Staph. aureus 910 [1]": {"system": "Staph. aureus 910", "assay": "MIC, standard microtiter assay", "type": "cell-based", "description": "as §1, §2"}, "Staph. epidermidis 2256 [2]": {"system": "Staph. epidermidis 2256", "assay": "MIC, standard microtiter assay", "type": "cell-based", "conditions": "Staphylococcus epidermidis, 2256, read-out: MIC in μg/ml, Staph. epidermidis 2256", "description": "as §1, §2"}, "Staph. epidermidis 2265": {"system": "Staph. epidermidis 2265", "assay": "MIC, standard microtiter assay", "type": "cell-based", "conditions": "Staphylococcus epidermidis, 2265, read-out: MIC in μg/ml, Staph. epidermidis 2265", "description": "as §1, §2"}, "Staph. epidermidis 2479": {"system": "Staph. epidermidis 2479", "assay": "MIC, standard microtiter assay", "type": "cell-based", "conditions": "Staphylococcus epidermidis, 2479, read-out: MIC in μg/ml, Staph. epidermidis 2479", "description": "as §1, §2"}, "Staph. epidermidis 2588 [3]": {"system": "Staph. epidermidis 2588", "assay": "MIC, standard microtiter assay", "type": "cell-based", "conditions": "Staphylococcus epidermidis, 2588, read-out: MIC in μg/ml, Staph. epidermidis 2588", "description": "as §1, §2"}, "[4]": {"system": "Staph. aureus 209P vancomycin resistant mutant", "assay": "MBC, standard assay procedures", "type": "cell-based", "conditions": "Staphylococcus aureus, read-out: MBC in μg/ml", "description": "as §2"}, "Staph. aureus 209P": {"system": "Staph. aureus 209P", "assay": "MBC, standard assay procedures", "type": "cell-based", "conditions": "Staphylococcus aureus, 209P, read-out: MBC in μg/ml", "description": "as §2"}, "Staph. aureus 910 [5]": {"system": "Staph. aureus 910", "assay": "MBC, standard assay procedures", "type": "cell-based", "conditions": "Staphylococcus aureus, 910, read-out: MBC in μg/ml", "description": "as §2"}, "Staph. epidermidis 2256 [6]": {"system": "Staph. epidermidis 2256", "assay": "MBC, standard assay procedures", "type": "cell-based", "conditions": "Staphylococcus epidermidis, 2256, read-out: MBC in μg/ml", "description": "as §2"}, "Staph. epidermidis 2261": {"system": "Staph. epidermidis 2261", "assay": "MBC, standard assay procedures", "type": "cell-based", "conditions": "Staphylococcus epidermidis, 2261, read-out: MBC in μg/ml", "description": "as §2"}, "Staph. epidermidis 2588 [7]": {"system": "Staph. epidermidis 2588", "assay": "MBC, standard assay procedures", "type": "cell-based", "conditions": "Staphylococcus epidermidis, 2588, read-out: MBC in μg/ml", "description": "as §2"}, "[8]": {"system": "Staph. saprophyticus 2657", "assay": "MBC, standard assay procedures", "type": "cell-based", "conditions": "Staphylococcus saprophyticus, 2657, read-out: MBC in μg/ml", "description": "as §2"}, "[9]": {"system": "Strep. pyogenes (Group A)", "assay": "MBC, standard assay procedures", "type": "cell-based", "conditions": "Streptococcus pyogenes, read-out: MBC in μg/ml", "description": "as §2"}, "Staph. haemolyticus 651": {"system": "Staph. haemolyticus 651", "assay": "Mouse protection assay", "type": "in vivo", "conditions": "Staphylococcus haemolyticus, 1 h; mice; Staph. haemolyticus 651, Dosage as No. of LD50's=9; treatment one hour post infection; Table IV"}}, "note": "Where two headings read alike, the source gives them in different places.", "data": [{"smiles": "CN[C@H](CC(C)C)C(=O)N[C@H]1C(=O)N[C@@H](CC(N)=O)C(=O)N[C@H]2C(=O)N[C@H]3C(=O)N[C@H](C(=O)N[C@H](C(=O)O)c4cc(O)cc(O)c4-c4cc3ccc4O)[C@H](O)c3ccc(c(Cl)c3)Oc3cc2cc(c3O[C@@H]2O[C@H](CO)[C@@H](O)[C@H](O)[C@H]2O[C@H]2C[C@](C)(N)[C@H](O)[C@H](C)O2)Oc2ccc(cc2Cl)[C@H]1O", "note": "[Vancomycin, vancomycin]", "values": [{"measurement": "MIC", "setting": "Staph. aureus 2620; Table I", "value": 1.6, "unit": "µg/mL"}, {"measurement": "MIC", "setting": "Staph. aureus 2620; Table II", "value": 3.1, "unit": "µg/mL"}, {"measurement": "MIC", "setting": "Staph. aureus 2620; Table IX", "value": 3.1, "unit": "µg/mL"}, {"measurement": "MIC", "setting": "Staph. aureus 2620; Table VIII", "value": 1.6, "unit": "µg/mL"}, {"measurement": "MIC", "setting": "Staph. aureus 910 [1]; Staph. aureus 910, Table VIII", "value": 1.6, "unit": "µg/mL"}, {"measurement": "MIC", "setting": "Staph. aureus 910 [1]; Staphylococcus aureus, 910, read-out: MIC in μg/ml", "value": 1.6, "unit": "µg/mL"}, {"measurement": "MIC", "setting": "Staph. epidermidis 2256 [2]; Table I", "value": 1.6, "unit": "µg/mL"}, {"measurement": "MIC", "setting": "Staph. epidermidis 2256 [2]; Table VIII", "value": 3.1, "unit": "µg/mL"}, {"measurement": "MIC", "setting": "Staph. epidermidis 2265; Table I", "value": 1.6, "unit": "µg/mL"}, {"measurement": "MIC", "setting": "Staph. epidermidis 2265; Table II", "value": 6.3, "unit": "µg/mL"}, {"measurement": "MIC", "setting": "Staph. epidermidis 2265; Table IX", "value": 6.3, "unit": "µg/mL"}, {"measurement": "MIC", "setting": "Staph. epidermidis 2265; Table VIII", "value": 3.1, "unit": "µg/mL"}, {"measurement": "MIC", "setting": "Staph. epidermidis 2479; Table I", "value": 1.6, "unit": "µg/mL"}, {"measurement": "MIC", "setting": "Staph. epidermidis 2479; Table II", "value": 6.3, "unit": "µg/mL"}, {"measurement": "MIC", "setting": "Staph. epidermidis 2479; Table IX", "value": 6.3, "unit": "µg/mL"}, {"measurement": "MIC", "setting": "Staph. epidermidis 2479; Table VIII", "value": 3.1, "unit": "µg/mL"}, {"measurement": "MIC", "setting": "Staph. epidermidis 2588 [3]; Table I", "value": 1.6, "unit": "µg/mL"}, {"measurement": "MIC", "setting": "Staph. epidermidis 2588 [3]; Table VIII", "value": 6.3, "unit": "µg/mL"}, {"measurement": "MBC", "setting": "[4]", "value": "> 100", "unit": "µg/mL"}, {"measurement": "MBC", "setting": "Staph. aureus 209P", "value": 0.8, "unit": "µg/mL"}, {"measurement": "MBC", "setting": "Staph. aureus 910 [5]", "value": 1.6, "unit": "µg/mL"}, {"measurement": "MBC", "setting": "Staph. epidermidis 2256 [6]", "value": 3.1, "unit": "µg/mL"}, {"measurement": "MBC", "setting": "Staph. epidermidis 2261", "value": 3.1, "unit": "µg/mL"}, {"measurement": "MBC", "setting": "Staph. epidermidis 2588 [7]", "value": 6.3, "unit": "µg/mL"}, {"measurement": "MBC", "setting": "[8]", "value": 6.3, "unit": "µg/mL"}, {"measurement": "MBC", "setting": "[9]", "value": 0.8, "unit": "µg/mL"}, {"measurement": "ED50", "setting": "Staph. haemolyticus 651", "value": 2.2, "unit": "mg/kg"}]}]}
